Measurements taken from DBAASP.
≈ marks a conversion by molar mass, not a printed value. Where “and” joins values, the source holds several entries; their conditions need not be identical. Equal entries are not always repeated.

Assays:
Assay in all cases: ≥ marks a high value that may be exact or a test limit, other limits are often not marked, values filed in µg/mL are converted to µM
[1] = test system: Bacillus subtilis IFO 3513
[2] = test system: Escherichia coli IFO 12734
[3] = test system: Staphylococcus aureus IFO 12732
[4] = test system: Escherichia coli ATCC 25922
[5] = test system: Pseudomonas aeruginosa ATCC 27853
[6] = test system: Staphylococcus aureus ATCC 25923
[7] = test system: Candida albicans ATCC 64550
Botrytis cinerea = test system: Botrytis cinerea
[8] = test system: Micrococcus luteus CIP 5345
Escherichia coli SBS 363 = test system: Escherichia coli SBS 363
Fusarium oxysporum = test system: Fusarium oxysporum
[9] = test system: Pseudomonas aeruginosa KCTC 1637
[10] = test system: Fusarium oxysporum KCTC 6084
[11] = test system: Bacillus megaterium KCTC 1096
[12] = test system: Aspergillus flavus KCTC 7375
[13] = test system: Trichosporon beigelii KCTC 7251
Proteus vulgaris = test system: Proteus vulgaris
[14] = test system: Bacillus subtilis KCTC 1918
[15] = test system: Escherichia coli KCTC 1682
[16] = test system: Staphylococcus aureus KCTC 1621
[17] = test system: Candida albicans KCTC 7121
Escherichia coli O157:H7 = test system: Escherichia coli O157:H7
[18] = test system: Staphylococcus epidermidis ATCC 12228
Vibrio cholerae non-O139 = test system: Vibrio cholerae non-O139
[19] = test system: Lysinibacillus sphaericus TISTR 678
[20] = test system: Salmonella enterica subsp. enterica serovar Typhi DMST 22842
Bacillus megaterium = test system: Bacillus megaterium
[21] = test system: Staphylococcus epidermidis
[22] = test system: Salmonella enterica subsp. enterica serovar Typhi
[23] = test system: Salmonella enterica subsp. enterica serovar Typhi ATCC 5784
Vibrio cholerae non-O1 = test system: Vibrio cholerae non-O1
[24] = test system: Staphylococcus aureus ATCC 25929
[25] = test system: Candida albicans ATCC 10231
[26] = test system: Staphylococcus aureus ATCC 29213
[27] = test system: Bacillus subtilis CMCC 63501
[28] = test system: Salmonella enterica subsp. enterica serovar Enteritidis
[29] = test system: Aeromonas veronii biovar sobria BJCP-5
[30] = test system: Staphylococcus pseudintermedius
[31] = test system: Enterococcus faecalis ATCC 29212
[32] = test system: Salmonella enterica subsp. enterica serovar Pullorum C79-13
[33] = test system: Salmonella enterica subsp. enterica serovar Typhimurium C77-31

**Q.** `CC[C@H](C)[C@H](N)C(=O)N[C@@H](CC(C)C)C(=O)N1CCC[C@H]1C(=O)N[C@@H](Cc1c[nH]c2ccccc12)C(=O)N[C@@H](CCCCN)C(=O)N[C@@H](Cc1c[nH]c2ccccc12)C(=O)N1CCC[C@H]1C(=O)N[C@@H](Cc1c[nH]c2ccccc12)C(=O)N[C@@H](CC(C)C)C(=O)N1CCC[C@H]1C(=O)N[C@@H](CC(C)C)C(=O)N[C@@H](CCCN=C(N)N)C(=O)N[C@@H](CCCN=C(N)N)C(N)=O` [ILPWKWPWLPLRR] was tested. Which MIC [1] did it give?
**A.** 28.4 µM (≈ 50 µg/mL)

**Q.** What about the MIC [2] of the same molecule?
**A.** ≥ 56.8 µM

**Q.** And the MIC [3]?
**A.** 14.2 µM (≈ 25 µg/mL)

**Q.** What does the source list for `CC(C)C[C@H](NC(=O)[C@H](Cc1c[nH]c2ccccc12)NC(=O)[C@@H](N)CCCCN)C(=O)N[C@@H](CCCN=C(N)N)C(=O)N[C@@H](CCCN=C(N)N)C(=O)N[C@H](C(=O)N[C@@H](Cc1c[nH]c2ccccc12)C(=O)N[C@@H](CCCN=C(N)N)C(=O)N[C@@H](Cc1c[nH]c2ccccc12)C(=O)N[C@@H](Cc1c[nH]c2ccccc12)C(=O)N[C@@H](CCCN=C(N)N)C(N)=O)C(C)C` [KWLRRVWRWWR]?
**A.** MIC [4]: 15 µM (≈ 25.9 µg/mL); MIC [5]: 20 µM (≈ 34.5 µg/mL); MIC [6]: 2.5 µM (≈ 4.32 µg/mL); MIC [7]: ≥ 100 µM

**Q.** What does the source list for `CC[C@H](C)[C@H](N)C(=O)N[C@@H](CC(C)C)C(=O)N[C@@H](CCC(=O)O)C(=O)N[C@@H](CC(N)=O)C(=O)N[C@@H](CC(C)C)C(=O)N[C@@H](CC(C)C)C(=O)N[C@@H](C)C(=O)N[C@@H](CCCN=C(N)N)C(=O)N[C@@H](CO)C(=O)N[C@H](C(=O)N[C@@H](CC(N)=O)C(=O)N[C@@H](CCC(=O)O)C(=O)N[C@@H](CC(=O)O)C(=O)N[C@@H](CCCN=C(N)N)C(=O)N[C@@H](CCC(=O)O)C(=O)NCC(=O)N[C@@H](CO)C(=O)N[C@H](C(=O)N[C@@H](Cc1ccccc1)C(=O)O)[C@@H](C)CC)[C@@H](C)O` [ILENLLARSTNEDREGSIF]?
**A.** MIC (Botrytis cinerea): ≥ 200 µM; MIC [8]: ≥ 200 µM; MIC (Escherichia coli SBS 363): ≥ 200 µM; MIC (Fusarium oxysporum): ≥ 200 µM

**Q.** For `CC[C@H](C)[C@H](NC(=O)[C@H](CCCCN)NC(=O)[C@H](CCCCN)NC(=O)[C@H](Cc1ccccc1)NC(=O)[C@H](CC(C)C)NC(=O)[C@H](CCCCN)NC(=O)[C@H](Cc1c[nH]c2ccccc12)NC(=O)[C@@H](N)CCCCN)C(=O)N1CCC[C@H]1C(=O)N[C@@H](CCCCN)C(=O)N[C@@H](Cc1ccccc1)C(=O)N[C@@H](CC(C)C)C(=O)N[C@@H](Cc1cnc[nH]1)C(=O)N[C@@H](CC(C)C)C(=O)N[C@@H](C)C(=O)N[C@@H](CCCCN)C(N)=O` [KWKLFKKIPKFLHLAK], which MIC [9] is on record?
**A.** 6.25 µM (≈ 12.7 µg/mL)

**Q.** What about the MIC [10] of the same molecule?
**A.** ≥ 50 µM

**Q.** And the MIC [11]?
**A.** 3.12 µM (≈ 6.33 µg/mL)

**Q.** What about the MIC [12] of the same molecule?
**A.** ≥ 50 µM

**Q.** What about the MIC [13] of the same molecule?
**A.** ≥ 50 µM

**Q.** And the MIC (Proteus vulgaris)?
**A.** 1.56 µM (≈ 3.16 µg/mL)

**Q.** And the MIC [14]?
**A.** 1.56 µM (≈ 3.16 µg/mL)

**Q.** What about the MIC [15] of the same molecule?
**A.** 4.42 µM (≈ 8.95 µg/mL)

**Q.** And the MIC [16]?
**A.** 3.12 µM (≈ 6.33 µg/mL)

**Q.** What about the MIC [17] of the same molecule?
**A.** ≥ 50 µM

**Q.** How did the MIC (Escherichia coli O157:H7) turn out when `CC(C)[C@H](NC(=O)CNC(=O)[C@@H](N)CC(N)=O)C(=O)N[C@@H](CCC(N)=O)C(=O)N1CCC[C@H]1C(=O)N[C@@H](CCCCN)C(=O)N[C@@H](Cc1ccc(O)cc1)C(=O)O` [NGVQPKY] was run?
**A.** ≥ 64 µM

**Q.** What about the MIC [4] of the same molecule?
**A.** > 248 µM

**Q.** And the MIC [18]?
**A.** > 248 µM

**Q.** And the MIC (Vibrio cholerae non-O139)?
**A.** ≥ 248 µM

**Q.** And the MIC [5]?
**A.** > 248 µM

**Q.** And the MIC [19]?
**A.** ≥ 64 µM

**Q.** And the MIC [20]?
**A.** ≥ 248 µM

**Q.** And the MIC (Bacillus megaterium)?
**A.** ≥ 64 µM

**Q.** What about the MIC [21] of the same molecule?
**A.** 31.1 µM (≈ 25 µg/mL)

**Q.** And the MIC [6]?
**A.** > 248 µM

**Q.** What about the MIC [22] of the same molecule?
**A.** 31.1 µM and ≥ 64 µM

**Q.** What about the MIC [23] of the same molecule?
**A.** ≥ 64 µM

**Q.** And the MIC (Vibrio cholerae non-O1)?
**A.** ≥ 248 µM

**Q.** With `CC(C)C[C@H](NC(=O)CNC(=O)[C@H](C)NC(=O)[C@H](CC(C)C)NC(=O)[C@H](CC(C)C)NC(=O)[C@@H](NC(=O)[C@H](CCCCN)NC(=O)[C@H](CC(C)C)NC(=O)[C@H](CC(C)C)NC(=O)[C@H](C)NC(=O)[C@@H]1CCCN1C(=O)[C@H](CC(C)C)NC(=O)[C@H](C)NC(=O)[C@@H](NC(=O)CNC(=O)[C@H](CC(C)C)NC(=O)[C@@H](N)CCCN=C(N)N)[C@@H](C)O)[C@@H](C)O)C(=O)N[C@@H](CC(N)=O)C(=O)NCC(N)=O` [RLGTALPALLKTLLAGLNG] as the molecule, how does the MIC [4] read?
**A.** 17 µM (≈ 32.2 µg/mL)

**Q.** And the MIC [24]?
**A.** 17 µM (≈ 32.2 µg/mL)

**Q.** What does the source list for `CC[C@H](C)[C@H](NC(=O)[C@@H]1CCCN1C(=O)[C@@H](N)CO)C(=O)N[C@@H](Cc1cnc[nH]1)C(=O)N[C@@H](C)C(=O)N[C@H]1CSSC[C@@H]2NC(=O)[C@H](CO)NC(=O)[C@H](CCCCN)NC(=O)[C@H](CC(C)C)NC(=O)CNC(=O)[C@H](CO)NC(=O)CNC(=O)[C@@H]3CSSC[C@H](NC(=O)[C@H](C(C)C)NC(=O)CNC(=O)[C@H](CCCN=C(N)N)NC(=O)[C@H](CCC(N)=O)NC(=O)[C@H](Cc4ccc(O)cc4)NC(=O)[C@H](CCCN=C(N)N)NC1=O)C(=O)N[C@@H]([C@@H](C)CC)C(=O)N1CCC[C@H]1C(=O)NCC(=O)N1CCC[C@H]1C(=O)N[C@@H](CSSC[C@@H](C(=O)N[C@H](C(=O)N[C@@H](CCCN=C(N)N)C(=O)N[C@@H](CC(N)=O)C(=O)N[C@@H](CCCN=C(N)N)C(=O)N[C@@H](Cc1c[nH]c4ccccc14)C(=O)N[C@@H](C)C(=O)O)C(C)C)NC2=O)C(=O)N[C@@H](CCCN=C(N)N)C(=O)N[C@@H](Cc1c[nH]c2ccccc12)C(=O)N1CCC[C@H]1C(=O)N[C@@H](Cc1ccc(O)cc1)C(=O)N[C@@H](Cc1ccc(O)cc1)C(=O)N[C@@H](CCCN=C(N)N)C(=O)N[C@@H](C(C)C)C(=O)NCC(=O)N[C@@H](CO)C(=O)N3` [SPIHACRYQRGVCIPGPCRWPYYRVGSCGSGLKSCCVRNRWA]?
**A.** MIC [25]: 16 µM (≈ 75.8 µg/mL); MIC [18]: 2.23 µM (≈ 10.6 µg/mL); MIC [26]: 54 µM and > 27 µM; MIC [27]: 8 µM (≈ 37.9 µg/mL); MIC [28]: 4 µM (≈ 19 µg/mL); MIC [29]: 0.5 µM (≈ 2.37 µg/mL); MIC [6]: 0.569 µM (≈ 2.7 µg/mL); MIC [30]: ≥ 54 µM; MIC [31]: 2 µM (≈ 9.48 µg/mL); MIC [32]: 2.23 µM (≈ 10.6 µg/mL); MIC [33]: 2.23 µM (≈ 10.6 µg/mL)
